{
  "source": "patent US10428124B2",
  "about": "“Timothy grass allergens and methods and uses for immune response modulation” (LA JOLLA INSTITUTE FOR ALLERGY AND IMMUNOLOGY, priority 2012, dated 2019)",
  "key": {"[1]": {"test_system": "human IgE", "experiment": "2D gel immunoblot of TG extract with serum pool from 8 TG-allergic donors, IgE reactivity", "type": "binding", "settings": "for Antibody reactvity IgE/IgG: IgE: E− = not IgE reactive", "description": "(§1) 2D DIGE (Difference Gel Electrophoresis) analysis. The complete 2D DIGE analysis was performed by Applied Biomics (Hayward, Calif., US). Briefly, TG extract was run on two 2D gels (3-10 pH range, 12% SDS-acrylamide gel), one was Coomassie blue stained, the other was blotted onto a nitrocellulose membrane. The membrane was then incubated with 5% dried milk in PBS/0.05% Tween to block non-specific binding and subsequently probed with a serum pool from 8 TG-allergic individuals at a dilution of 1:250. IgE and IgG binding was detected using goat anti-human IgE and rabbit anti-human IgG (Sigma-Aldrich, St. Louis, Mo.) and visualized using Cy2-conjugated donkey anti-goat IgG and Cy5-conjugated donkey […] IgG antibodies (Biotium, Hayward, Calif.).\n(§2) Mass spectral protein identification was performed by Applied Biomics (Hayward, Calif., US). Briefly, spots of interest were selected from the 2D blot and the corresponding spots were identified on the stained SDS gel and cut out, washed several times to remove staining dye and other inhibitory chemicals. The spots were then dried to absorb maximum digestion buffer. Dried 2D gel spots were rehydrated in digestion buffer containing trypsin. Proteins were digested in-gel at 37° C. and then extracted from the gel with TFA extraction buffer. Subsequently the peptides were desalted using C-18 Zip-tips (Millipore) and mixed with CHCA matrix (alpha-cyano-4-hydroxycinnamic acid) and spotted into wells of a MALDI plate. Mass spectra of the peptides in each sample were obtained using an Applied Biosystems Proteomics Analyzer. The spectra were compared to the amino acid sequences encoded by putative ORFs from the de novo assembled TG pollen transcripts. […] The amino acid sequences encoded by these ORFs were clustered using a custom script at a sequence similarity threshold of 90% to group together highly similar protein sequences. These sequences are encoded by different transcripts from the current assembly, which could arise from splice variants, allelic variation between cells of TG pollen, and from gene families with multiple members. Amino acid sequences that form one cluster are assigned one putative protein ID (Table 1)."}, "[2]": {"test_system": "PBMCs from TG allergic donors", "experiment": "IFNg ELISPOT of TG extract-expanded PBMCs from TG allergic donors (single peptides)", "type": "cell-based, human", "settings": "T cell recognition in TG allergic patients; for Total response IFNg Events: number of positive responses"}, "[3]": {"test_system": "human IgG", "experiment": "2D gel immunoblot of TG extract with serum pool from 8 TG-allergic donors, IgG reactivity", "type": "binding", "description": "as §1, §2"}, "[4]": {"test_system": "PBMCs from TG allergic donors", "experiment": "IL-5 ELISPOT of TG extract-expanded PBMCs from TG allergic donors (peptide pools, single peptides, TG extract)", "type": "cell-based, human", "description": "Each donor was recruited following Institutional Review Board approval (Federal Wide Assurance number 00000032) and informed consent and assigned a study identification number. Donors were tested for allergen reactivity by skin prick tests to extracts from 32 common allergens. TG allergic donors were identified as having a skin reaction with a wheal of 5 mm in diameter to TG and a clinical history consistent with seasonal grass pollen allergy. Donors that had received specific immunotherapy were excluded. Non-allergic donors were identified as having negative skin prick tests to all allergens and no clinical history of allergy.\nPBMCs were isolated by density gradient centrifugation from one unit of blood (˜450 ml) and cryo-preserved as described previously (12). For in vitro expansions, PBMCs were thawed and cultured in RPMI 1640 (Ω Scientific, Tarzana, Calif.) supplemented with 5% human AB serum (Cellgro, Herndon, Va.) at a density of 2×10^6 cells/ml in 24-well plates (BD Biosciences, San Jose, Calif.) and stimulated with TG pollen extract ([…]) (Greer, Lenoir, N.C.). Cells were kept at 37° C., 5% CO2 and additional IL-2 and IL-7 (10 U/ml, eBioscience, San Diego, Calif.) was added every 3 d after initial antigenic stimulation. On day 14, cells were harvested and screened for reactivity against TG-specific peptide pools (16-25 peptides/pool, averaging 20 peptides/pool). On day 17, peptides from positive pools were tested individually to identify the reactive epitopes.\nThe production of IL-5 from cultured PBMCs in response to antigen stimulation was measured by ELISPOT as described previously (12). Briefly, 1×10^5 cells/well were incubated with peptide, peptide pool or TG extract (10 μg/ml, 5 μg/ml and 50 μg/ml, respectively). After 24 h, cells were removed and plates were incubated with 2 μg/ml biotinylated anti-human IL-5 Ab (Mabtech) at 37° C. After 2 h, plates were washed and avidin-peroxidase-complex was added (Vector Laboratories, Burlingame, Calif.) for 1 h at RT. Peroxidase-conjugated spots were developed with 3-amino-9-ethylcarvazole solution (Sigma-Aldrich, St. Louis, Mo.). Criteria for peptide pool positivity were 100 SFCs/106 PBMCs, p 0.05, and a stimulation index (SI) 2. Criteria for individual peptides were the same except a minimum of 20 SFCs was counted as positive."}, "[5]": {"test_system": "PBMCs from TG allergic donors", "experiment": "IFNg ELISPOT of TG extract-expanded PBMCs from TG allergic donors (single peptides)", "type": "cell-based, human", "settings": "T cell recognition in TG allergic patients; number of response events"}, "[6]": {"test_system": "PBMCs from TG allergic donors", "experiment": "IFNg ELISPOT of TG extract-expanded PBMCs from TG allergic donors (single peptides)", "type": "cell-based, human", "settings": "number of positive response events"}, "[7]": {"test_system": "PBMCs from TG allergic donors", "experiment": "IFNg ELISPOT of TG extract-expanded PBMCs (single peptides)", "type": "cell-based, human", "settings": "for Total response IFNg Events: number of positive response events to the 15-mer peptide"}, "[8]": {"test_system": "PBMCs from TG allergic donors", "experiment": "IFNg ELISPOT of TG extract-expanded PBMCs from TG allergic donors (single peptides)", "type": "cell-based, human", "settings": "TG allergic patients; number of positive responses"}, "[9]": {"settings": "reactivity of the parent TG antigen, given per peptide"}, "[10]": {"settings": "reactivity of the parent TG antigen, given per peptide, G− = not IgG reactive"}, "[11]": {"settings": "T cell recognition in TG allergic patients, number of positive responses"}, "[12]": {"settings": "reactivity of the parent antigen"}, "[13]": {"settings": "reactivity of the parent antigen, G+ = IgG reactive, G− = not"}, "[14]": {"settings": "number of positive response events to the 15-mer peptide"}},
  "data": [
    {"substance": "882 (DVYPTVCLPMCVCVL; Phleum pratense) [Peptide 882]", "values": [
      {"measurement": "Antibody reactvity IgE/IgG: IgE", "setting": "[1]; [9]", "value": "E−"},
      {"measurement": "Total response IFNg Events", "setting": "[2]", "value": 0},
      {"measurement": "Antibody reactvity IgE/IgG: IgG", "setting": "[3]; [10]", "value": "G−"},
      {"measurement": "Total response IL-5 Events", "setting": "[4]; [11]", "value": 0}
    ]},
    {"substance": "30285 (VFNDDIQGTASVVLA; Phleum pratense) [Peptide 30285]", "values": [
      {"measurement": "Antibody reactvity IgE/IgG (IgE part)", "setting": "[1]; E+ / E− part of the cell, reactivity of the parent antigen", "value": "E+"},
      {"measurement": "Antibody reactivity IgE/IgG: IgE", "setting": "[1]; IgE reactivity (E+/E−) of the source antigen of the peptide", "value": "E+"},
      {"measurement": "Total response IFNg Events", "setting": "[5]", "value": 0},
      {"measurement": "Antibody reactvity IgE/IgG (IgG part)", "setting": "[3]; G+ / G− part of the cell, reactivity of the parent antigen", "value": "G−"},
      {"measurement": "Antibody reactivity IgE/IgG: IgG", "setting": "[3]; IgG reactivity (G+/G−) of the source antigen of the peptide", "value": "G−"},
      {"measurement": "Total response IL-5 Events", "setting": "[4]; IL-5, number of positive response events", "value": 1},
      {"measurement": "Total response IL-5 SFC", "setting": "[4]; IL-5, total SFC", "value": 67, "unit": "SFC"},
      {"measurement": "Total response IL-5 SFC", "setting": "[4]; T cell recognition in TG allergic patients", "value": 67, "unit": "SFC"},
      {"measurement": "Total response IL-5 Events", "setting": "[4]; T cell recognition in TG allergic patients, number of response events", "value": 1},
      {"measurement": "Total response IFNg Events", "setting": "[6]", "value": 0}
    ]},
    {"substance": "82109 (GDLYIFESRAICKYA; Phleum pratense) [Peptide 82109]", "values": [
      {"measurement": "Antibody reactvity IgE/IgG (IgE part)", "setting": "[1]; IgE reactivity of the parent antigen", "value": "E−"},
      {"measurement": "Antibody reactvity IgE/IgG: IgE", "setting": "[1]; [12]", "value": "E−"},
      {"measurement": "Total response IFNg Events", "setting": "[7]", "value": 0},
      {"measurement": "Antibody reactvity IgE/IgG (IgG part)", "setting": "[3]; IgG reactivity of the parent antigen", "value": "G−"},
      {"measurement": "Antibody reactvity IgE/IgG: IgG", "setting": "[3]; [13]", "value": "G−"},
      {"measurement": "Total response IFNg Events", "setting": "[8]", "value": 0},
      {"measurement": "Total response IL-5 SFC", "setting": "[4]; 15-mer peptide", "value": 290, "unit": "SFC"},
      {"measurement": "Total response IL-5 Events", "setting": "[4]; TG allergic patients, number of positive responses", "value": 1},
      {"measurement": "Total response IL-5 SFC", "setting": "[4]; TG allergic patients, total spot-forming cells", "value": 290, "unit": "SFC"},
      {"measurement": "Total response IL-5 Events", "setting": "[4]; [14]", "value": 1}
    ]},
    {"substance": "86231 (IMQLLRDNLTLWTSD; Phleum pratense) [Peptide 86231]", "values": [
      {"measurement": "Antibody reactvity IgE/IgG: IgE", "setting": "[1]; [9]", "value": "E−"},
      {"measurement": "Antibody reactvity IgE/IgG: IgE", "setting": "[1]; [12]", "value": "E−"},
      {"measurement": "Total response IFNg SFC", "setting": "[2]", "value": 73, "unit": "SFC"},
      {"measurement": "Total response IFNg Events", "setting": "[2]", "value": 1},
      {"measurement": "Total response IFNg SFC", "setting": "[7]; 15-mer peptide", "value": 73, "unit": "SFC"},
      {"measurement": "Total response IFNg Events", "setting": "[7]", "value": 1},
      {"measurement": "Antibody reactvity IgE/IgG: IgG", "setting": "[3]; [10]", "value": "G−"},
      {"measurement": "Antibody reactvity IgE/IgG: IgG", "setting": "[3]; [13]", "value": "G−"},
      {"measurement": "Total response IL-5 Events", "setting": "[4]; [11]", "value": 0},
      {"measurement": "Total response IL-5 Events", "setting": "[4]; [14]", "value": 0}
    ]}
  ]
}
